According to patent US6608090B1, “Benzothiophenes with novel basic side chains” (Eli Lilly and Company, priority 1995, dated 2003):

Columns and labels:
[1] = test system: ovariectomized (OVX) female Sprague Dawley rats; experiment: Serum cholesterol in ovariectomized rats (post-menopausal model), 4 days of daily dosing; format: in vivo, rat; conditions: for Cholest. % dec. OVX: oral, daily for 4 days
Procedure: (§1) In the examples illustrating the methods, a post-menopausal model was used in which effects of different treatments upon circulating lipids were determined.
(§2) Seventy-five day old female Sprague Dawley rats (weight range of 200 to 225 g) were obtained from Charles River Laboratories (Portage, Mich.). The animals were either bilaterally ovariectomized (OVX) or exposed to a Sham surgical procedure at Charles River Laboratories, and then shipped after one week. Upon arrival, they were housed in metal hanging cages in groups of 3 or 4 per cage and had ad libitum access to food (calcium content approximately 0.5%) and water for one week. Room temperature was maintained at 22.2°±1.70° C. with a minimum relative humidity of 40%. The photoperiod in the room was 12 hours light and 12 hours dark.
(§3) Dosina Reaimen Tissue Collection. After a one week acclimation period (therefore, two weeks post-OVX) daily dosing with test compound was initiated. 17α-ethynyl estradiol or the test compound were given orally, unless otherwise stated, as a suspension in 1% carboxymethylcellulose or dissolved in 20% cyclodextrin. Animals were dosed daily for 4 days. Following the dosing regimen, animals were weighed and anesthetized with a ketamine: xylazine (2:1, V:V) mixture and a blood sample was collected by cardiac puncture. The animals were then sacrificed by asphyxiation with CO2, the uterus was removed through a midline incision, and a wet uterine weight was determined.
Cholesterol Analysis. Blood samples were allowed to clot at room temperature for 2 hours, and serum was obtained following centrifugation for 10 minutes at 3000 rpm. Serum cholesterol was determined using a Boehringer Mannheim Diagnostics high performance cholesterol assay. Briefly the cholesterol was oxidized to cholest-4-en-3-one and hydrogen peroxide. The hydrogen peroxide was then reacted with phenol and 4-aminophenazone in the presence of peroxidase to produce a p-quinone imine dye, which was read spectrophotemetrically at 500 nm. Cholesterol concentration was then calculated against a standard curve. The entire assay was automated using a Biomek Automated Workstation.

[2] = test system: uteri of ovariectomized (OVX) female Sprague Dawley rats; experiment: Uterine Eosinophil Peroxidase (EPO) Assay; conditions: rat, in vivo
[3] = test system: ovariectomized (OVX) female Sprague Dawley rats; experiment: Wet uterine weight in ovariectomized rats, 4 days of daily dosing; conditions: rat, in vivo, po, 0.1 mg/kg/day
Procedure: as §1, §2
as §3, with “Following the dosing regimen, animals were weighed and anesthetized with a ketamine: xylazine (2:1, V:V) mixture and a blood sample was collected by cardiac puncture.” left out

ovariectomized rats = experiment: Osteoporosis Test Procedure: femur density in ovariectomized rats, 35 days; format: in vivo, rat; conditions: oral, in 20% hydroxypropyl β-cyclodextrin, daily for 35 days
Procedure: Following the General Preparation Procedure, infra, the rats are treated daily for 35 days (6 rats per treatment group) and sacrificed by decapitation on the 36th day. The 35 day time period is sufficient to allow maximal reduction in bone density, measured as described herein. At the time of sacrifice, the uteri are removed, dissected free of extraneous tissue, and the fluid contents are expelled before determination of wet weight in order to confirm estrogen deficiency associated with complete ovariectomy. […] The uteri are then placed in 10% neutral buffered formalin to allow for subsequent histological analysis. The right femurs are excised and scanned at the distal metaphysis 1 mm from the patellar groove with single photon absorptiometry. Results of the densitometer measurements represent a calculation of bone density as a function of the bone mineral content and bone width. In accordance with the above procedures, compounds of the present invention and ethynyl estradiol (EE2) in 20% hydroxypropyl β-cyclodextrin are orally administered to test animals.

| SMILES | Cholest. % dec. OVX ([1]; 0.1 mg/kg) [%] | Cholest. % dec. OVX ([1]; 1 mg/kg) [%] | Cholest. % dec. OVX ([1]; 10 mg/kg) [%] | effect on serum cholesterol (in words) ([1]; orally administered at 0.1 mg/Kg/day) | eosinophil infiltration into the uterus (stromal layer), in words [2] | uterine weight compared with ovariectomized test animals (in words) [3] | loss of femur density (bone loss) after ovariectomy, in words (ovariectomized rats) |
| --- | --- | --- | --- | --- | --- | --- | --- |
| CC1CCN(CCOc2ccc(C(=O)c3c(-c4ccc(O)cc4)sc4cc(O)ccc34)cc2)CC1 | 43.2 | 71.0 | 51.6 | – | – | – | – |
| CC1(C)CCCN(CCOc2ccc(C(=O)c3c(-c4ccc(O)cc4)sc4cc(O)ccc34)cc2)C1 | 25.1 | 58.6 | 50.9 | – | – | – | – |
| CC1(C)CCN(CCOc2ccc(C(=O)c3c(-c4ccc(O)cc4)sc4cc(O)ccc34)cc2)CC1 | 14.5 | 25.9 | 65.8 | – | – | – | – |
| C[C@@H]1C[C@H](C)CN(CCOc2ccc(C(=O)c3c(-c4ccc(O)cc4)sc4cc(O)ccc34)cc2)C1 | 13.8 | 66.8 | 85.5 | – | – | – | – |
| CC1CCCC(C)N1CCOc1ccc(C(=O)c2c(-c3ccc(O)cc3)sc3cc(O)ccc23)cc1 (stereo not shown) | 41.5 | 62.3 | 76.9 | – | – | – | – |
| COC[C@@H]1CCCN1CCOc1ccc(C(=O)c2c(-c3ccc(O)cc3)sc3cc(O)ccc23)cc1 | 30.2 | 65.4 | 80.3 | – | – | – | – |
| O=C(c1ccc(OCCN2CCC[C@@H]2CO)cc1)c1c(-c2ccc(O)cc2)sc2cc(O)ccc12 | 42.0 | 40.6 | 71.9 | – | – | – | – |
| O=C(c1ccc(OCCN2CCC[C@H]2CO)cc1)c1c(-c2ccc(O)cc2)sc2cc(O)ccc12 | 46.7 | 73.7 | 74.5 | – | – | – | – |
| CC1CC(C)CN(CCOc2ccc(C(=O)c3c(-c4ccc(O)cc4)sc4cc(O)ccc34)cc2)C1 (racemic) | 50.6 | 69.7 | 81.6 | – | – | – | – |
| C#C[C@]1(O)CC[C@H]2[C@@H]3CCc4cc(O)ccc4[C@H]3CC[C@@]21C [EE2, 17α-ethynyl estradiol] | – | – | – | caused a decrease in serum cholesterol | substantial, expected increase in esosinophils infiltration | substantially greater | prevents this loss |
